In patent US20070031415A1, “Regulation of interaction between rapl and rap1” (priority 2002, published 2007):

Molecular target: T1, binding between Rap1 and p30 (Homo sapiens, UniProt P62834+Q8WWW0)
T1 construct: made in house; 293T cells for Myc-p30 (crude lysate)
T1 sequence (P62834 1-184): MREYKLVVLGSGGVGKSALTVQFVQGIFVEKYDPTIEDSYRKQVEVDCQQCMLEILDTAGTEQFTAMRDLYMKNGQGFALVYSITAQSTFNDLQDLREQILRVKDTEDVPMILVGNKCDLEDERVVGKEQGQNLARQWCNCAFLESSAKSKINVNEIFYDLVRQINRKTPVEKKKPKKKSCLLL
T1 sequence (Q8WWW0 1-265 isoform Q8WWW0-2): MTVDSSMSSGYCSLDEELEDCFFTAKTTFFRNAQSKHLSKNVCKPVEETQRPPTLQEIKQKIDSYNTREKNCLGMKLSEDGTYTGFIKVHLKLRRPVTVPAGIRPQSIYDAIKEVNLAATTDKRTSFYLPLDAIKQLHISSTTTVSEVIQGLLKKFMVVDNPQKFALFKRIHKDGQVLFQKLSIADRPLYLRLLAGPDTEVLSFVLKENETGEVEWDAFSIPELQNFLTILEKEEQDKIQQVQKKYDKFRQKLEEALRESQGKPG
Assay: Rap1-p30 binding inhibition assay (GST-Rap1 beads pull-down of Myc-p30 lysate, western blot)
Conditions: 1 μM compound, GTPγS-activated Rap1, reaction 4° C. 30 sec; FIG. 7
Procedure: For a plasmid for production of GST-Rap1 fusion protein, pGEX-3× (product of Amersham Pharmacia Biotech) was used. The Rap1 coding sequence represented by SEQ ID NO:1 was inserted between BamHI and EcoRI restriction enzyme sites of the vector. At this time, two nucleotide pair CC were added in front of the 5′ terminal ATG of the nucleotide sequence represented by SEQ ID NO:1 for frame adjustment. […] GGATCCCCATG . . . 3′. The obtained plasmid for production of GST-Rap1 fusion protein was transfected into E. coli. The E. coli with the inserted plasmid was cultured, and GST-Rap1 protein was produced within E. coli cells by inducing the protein production with 0.2 mM IPTG (isopropylthiogalactopyranoside) (30° C., 2 hours). The E. coli cells were recovered by centrifugation, solubilized in a lysis buffer (100 mM NaCl, 50 mM Tris-HCl (pH 7.5), 1% Triton X100, 2 mM MgCl2, 0.1 TIU/ml Aprotinin), and disrupted by sonication. The solution was centrifuged, and then glutathione Sepharose 4B beads (product of Amersham) was added to the obtained supernatant and reacted at 4° C. for one hour to prepare GST-Rap1 beads.
A plasmid of p30-Myc tag was introduced into 293T cells in 70% confluency by electroporation. […]
The bands visualized by exposing to the film for chemiluminescence were quantitated with use of image analyzing software (Win Roof, product of Mitani Corp.). […]

CCS(=O)(=O)Nc1ncc(C(F)(F)F)cc1NC(=O)C1CCCCC1.O.[Na] [compound 1, N-(2-ethylsulfonylamino-5-trifluoromethyl-3-pyridyl)cyclohexanecarboxamide monosodium salt monohydrate]
p30 band volume (brightness×area) of p30 bound to activated GST-Rap1, compared to group without addition: significantly lower
